This is an account of results in ChEMBL document CHEMBL3797079, “Synergistic reduction of HIV-1 infectivity by 5-azacytidine and inhibitors of ribonucleotide reductase” (Bioorg Med Chem, 2016).

For data set [1], the system named is Human immunodeficiency virus 1. Put plainly: Potentiation of 5-Aza-C-induced antiviral activity against VSV-G pseudotyped HIV-1 NL4-3 infected in human U373-MAGI cells assessed as Nef mutation at 50 uM incubated for 4 hrs preinfection followed by 5-Aza-C addition for 2 hrs preinfection and subsequent viral infection measured at 72 hrs post infection by illumina sequencing method (reference value: 22.6%). Type of data set: functional.

Data set [2] deals with Human immunodeficiency virus 1. The data set can be described thus: Antiviral activity against VSV-G pseudotyped HIV-1 NL4-3 infected in human U373-MAGI cells assessed as Pol mutation at 50 uM incubated for 4 hrs prior to infection measured at 72 hrs post infection by illumina sequencing method (reference value: 18.5%). The data set is classed as functional.
Data set [3] has as its system Human immunodeficiency virus 1. The data set can be described thus: Potentiation of 5-Aza-C-induced antiviral activity against VSV-G pseudotyped HIV-1 NL4-3 infected in human U373-MAGI cells assessed as reduction in viral infectivity at 25 to 100 uM preincubated for 2 hrs followed by 5-Aza-C addition for 2 hrs and subsequent viral infection measured at 72 hrs post infection by flow cytometric analysis. The data set is classed as functional, organism-based. Background: In flow cytometry, cells or beads pass a laser one at a time.

The test system of data set [4] is U373-MAGI. Put plainly: Increase in 5-aza-dCTP/dCTP ratio in human U373-MAGI cells at 50 uM preincubated for 2 hrs followed by 5-aza-dC addition measured after 4 hrs by LC-MS/MS analysis relative to 5-aza-dC. The data set is classed as functional, cell-based.
In data set [5] the test system is Human immunodeficiency virus 1. The data set can be described thus: Antiviral activity against VSV-G pseudotyped HIV-1 NL4-3 infected in human U373-MAGI cells assessed as reduction in U5-gag level at 50 uM measured at 6 hrs post infection by qPCR method. Type of data set: functional, organism-based. (In general: Real-time PCR tracks product formation cycle by cycle.)

Data set [6] has as its system Human immunodeficiency virus 1. The data set can be described thus: Antiviral activity against VSV-G pseudotyped HIV-1 NL4-3 infected in human U373-MAGI cells assessed as increase in frequency of G to C transversion at 50 uM incubated for 4 hrs prior to infection measured at 72 hrs post infection by illumina sequencing method relative to control. The data set is classed as functional.

In data set [7] the test system is Human immunodeficiency virus 1. The data set can be described thus: Antiviral activity against VSV-G pseudotyped HIV-1 NL4-3 infected in human U373-MAGI cells assessed as reduction in viral infectivity at 50 uM incubated for 4 hrs prior to viral infection measured at 72 hrs post infection by flow cytometric analysis. The data set is classed as functional, organism-based.

Data set [8] relates to U373-MAGI. The data set can be described thus: Reduction in dCTP level in human U373-MAGI cells at 50 uM after 6 hrs by LC-MS/MS analysis. Type of data set: functional, cell-based.
Data set [9] has as its system Human immunodeficiency virus 1. The data set can be described thus: Potentiation of 5-Aza-C-induced antiviral activity against VSV-G pseudotyped HIV-1 NL4-3 infected in human U373-MAGI cells assessed as Gag mutation at 50 uM incubated for 4 hrs preinfection followed by 5-Aza-C addition for 2 hrs preinfection and subsequent viral infection measured at 72 hrs post infection by illumina sequencing method (reference value: 18.4%). Type of data set: functional.

Data set [10] concerns Human immunodeficiency virus 1. Put plainly: Potentiation of 5-Aza-dC-induced antiviral activity against VSV-G pseudotyped HIV-1 NL4-3 infected in human U373-MAGI cells assessed as Vif mutation at 50 uM incubated for 4 hrs preinfection followed by 5-Aza-C addition for 2 hrs preinfection and subsequent viral infection measured at 72 hrs post infection by illumina sequencing method (reference value: 19.2%). Type of data set: functional.

A short description of data set [11]: Cytotoxicity against human U373-MAGI cells at 50 uM measured at 72 hrs by Celltiter-Glo luminescent cell viability assay. Type of data set: cell-based. On the technique in general: ATP-based viability assays read luminescence as a measure of living cells.
Data set [12] has as its system Human immunodeficiency virus 1. Put plainly: Potentiation of […] antiviral activity against VSV-G pseudotyped HIV-1 NL4-3 infected in human U373-MAGI cells assessed as Env mutation at 50 uM incubated for 4 hrs preinfection followed by 5-Aza-C addition for 2 hrs preinfection and subsequent viral infection measured at 72 hrs post infection by illumina sequencing method (reference value: 21.4%). Type of data set: functional.

The subject of data set [13] is U373-MAGI. The data set can be described thus: Reduction in 5-aza-dCTP level in human U373-MAGI cells at 200 uM preincubated for 2 hrs followed by 5-aza-C addition measured after 4 hrs by LC-MS/MS analysis. The data set is classed as functional, cell-based.
Data set [14] relates to U373-MAGI. Put plainly: Reduction in dTTP level in human U373-MAGI cells at 200 uM after 6 hrs by LC-MS/MS analysis. The data set is classed as functional, cell-based.

Structures are written as SMILES. Activity calls are given as the source filed them. The rule behind the calls is not given here.

As to `Oc1ccc(/C=C/c2cc(O)cc(O)c2)cc1` [RESVERATROL], the Activity in data set [1] is given as 17.1%; in [2], 19%; in data set [9], 15.5%; in data set [10], 25.1%; in data set [11], “Non-toxic”; in [12] it was 20.1%. The result (in data set [3]; with U373-MAGI [4]; in data set [5]; in [7]; with U373-MAGI [13]; with U373-MAGI [14]) was Active. Further, the “fold change (FC)” value in [6] is reported as 2. In addition, the outcome in the data set on U373-MAGI [8] was inactive.
